Measured values from the NIST ThermoML archive (doi:10.1021/je500314x).

Key:
[1] = gamma densitometer
[2] = wn = mass fraction of the nth substance listed; settings: Liquid, gamma densitometer

C1CCCCC1 [cyclohexane]
[1], 5000 kPa, Fluid (supercritical or subcritical phases)
Settings	mass density [kg/m3]
287 K	788.3
305.9 K	763.7
324.9 K	752.1
351 K	731.8
375 K	704.3
394.8 K	686.7
416.6 K	666.5
431.9 K	646.2
452.4 K	620.2
475.1 K	595.5
488.4 K	573.5
504.4 K	546.3
513.9 K	527.5
522.6 K	510.3
531.9 K	487
543 K	454.5
553.2 K	426.2
561.7 K	365.6
572.1 K	259.5
584.2 K	187
592.5 K	167
603.6 K	149.3
618.8 K	133
635 K	118.3
654.2 K	109.8
672.3 K	96.5
687.5 K	92
698.5 K	89.9

N#N [nitrogen]
mass density [kg/m3], [1], Gas
Settings	293.2 K	473.2 K
100 kPa	1.15	0.68
600 kPa	7.36	3.79
1000 kPa	–	8
1100 kPa	11.22	–
1600 kPa	17.77	11.8
2100 kPa	23.64	14.69
2600 kPa	27.88	–
3100 kPa	33.96	21.05
3600 kPa	40.54	–
4000 kPa	–	27.65
4100 kPa	46.43	–
4600 kPa	53.49	–
5100 kPa	58.28	–
5600 kPa	62.2	–
6000 kPa	69.11	–

CCCCCCCC [octane] + CCCCCCC
[2]
Settings	mass density [kg/m3]
303.1 K, 5100 kPa, w2 = 0.5	686.2
313.3 K, 5100 kPa, w2 = 0.5	678.1
323 K, 5100 kPa, w2 = 0.5	670
332.7 K, 5100 kPa, w2 = 0.5	663.3
344.1 K, 5100 kPa, w2 = 0.5	655.9
353.2 K, 5100 kPa, w2 = 0.5	645.5
362.9 K, 5100 kPa, w2 = 0.5	638.9
372.3 K, 5100 kPa, w2 = 0.5	632.3
374.7 K, 3300 kPa, w2 = 0.255	633.2
374.8 K, 8000 kPa, w2 = 0.255	640.4
380.5 K, 3200 kPa, w2 = 0.51	619.9
380.5 K, 8700 kPa, w2 = 0.51	631.1
383.2 K, 5100 kPa, w2 = 0.5	623.2
393 K, 5100 kPa, w2 = 0.5	611.8
405.1 K, 5100 kPa, w2 = 0.5	604.3
413.8 K, 5100 kPa, w2 = 0.5	592.5
424.2 K, 5100 kPa, w2 = 0.5	584.4
424.4 K, 4900 kPa, w2 = 0.51	582.4
424.5 K, 7200 kPa, w2 = 0.51	588
429.4 K, 3500 kPa, w2 = 0.255	584
429.4 K, 8300 kPa, w2 = 0.255	592.3
433.2 K, 5100 kPa, w2 = 0.5	573.5
443 K, 5100 kPa, w2 = 0.5	560.6
453.1 K, 5100 kPa, w2 = 0.5	554.4
464.5 K, 5100 kPa, w2 = 0.5	545.2
466.6 K, 3200 kPa, w2 = 0.51	535.5
466.7 K, 8600 kPa, w2 = 0.51	554.2
473.6 K, 5100 kPa, w2 = 0.5	531.6
475.8 K, 4400 kPa, w2 = 0.255	538.4
475.9 K, 8500 kPa, w2 = 0.255	554.4
484.2 K, 5100 kPa, w2 = 0.5	524
492.8 K, 5100 kPa, w2 = 0.5	508
503.1 K, 5100 kPa, w2 = 0.5	495.9
513.2 K, 5100 kPa, w2 = 0.5	483.6
518 K, 4900 kPa, w2 = 0.51	479.1
518 K, 7500 kPa, w2 = 0.51	494.8
522.4 K, 5100 kPa, w2 = 0.5	470.1
525.5 K, 4700 kPa, w2 = 0.255	473.6
525.5 K, 7300 kPa, w2 = 0.255	493.5
533 K, 5100 kPa, w2 = 0.5	451.2
543.3 K, 5100 kPa, w2 = 0.5	437.7
549.3 K, 5400 kPa, w2 = 0.51	427.9
549.4 K, 8700 kPa, w2 = 0.51	461.2
553 K, 5100 kPa, w2 = 0.5	415.1
557.2 K, 5300 kPa, w2 = 0.255	427.1
557.2 K, 8200 kPa, w2 = 0.255	460.9
563.5 K, 5100 kPa, w2 = 0.5	394
575.1 K, 5100 kPa, w2 = 0.5	372.9
583.8 K, 5100 kPa, w2 = 0.5	348.2
591.2 K, 5100 kPa, w2 = 0.5	319

O [water]
[1], Liquid
Settings	mass density [kg/m3]
286 K, 3000 kPa	1000.7
288.3 K, 5000 kPa	1001.4
303.5 K, 5000 kPa	996.5
305 K, 3000 kPa	996.2
322.6 K, 3000 kPa	988.4
324.8 K, 5000 kPa	990.7
343.4 K, 3000 kPa	977.7
344.3 K, 5000 kPa	981.8
356.4 K, 3000 kPa	969
358.6 K, 5000 kPa	966.8
372.3 K, 5000 kPa	957.1
374.7 K, 3000 kPa	962.3
384 K, 5000 kPa	947
391.2 K, 3000 kPa	945
393.6 K, 5000 kPa	938.5
403.8 K, 5000 kPa	932.6
412.5 K, 3000 kPa	927.7
414.2 K, 5000 kPa	923
423.2 K, 5000 kPa	915.2
423.8 K, 3000 kPa	920.4
432.8 K, 5000 kPa	903.3
442.5 K, 3000 kPa	899.6
442.7 K, 5000 kPa	893.8
452.6 K, 5000 kPa	884.3
462 K, 5000 kPa	876.7
462.5 K, 3000 kPa	880.9
471.4 K, 3000 kPa	873.1
474.3 K, 5000 kPa	864.5
483.9 K, 3000 kPa	858.3
484.1 K, 5000 kPa	854.6
491.4 K, 5000 kPa	839.5
492.5 K, 3000 kPa	841.7
500.4 K, 3000 kPa	827.9
502.5 K, 5000 kPa	824.9
511 K, 5000 kPa	814.1
